# According to patent publication US20090030067A1, “Anti-proliferative combination therapy comprising satraplatin or jm118 and a taxane” ((GPC Biotech AG), priority 2005, published 2009):
# How the values were obtained:
# [1] = system: A129; assay: SRB cytotoxicity assay, parental A129 cell line; assay type: cell-based; conditions: 48 hours, mean and standard deviation
# [2] = system: A129 cp80; assay: SRB cytotoxicity assay, cisplatin-resistant A129 cp80 cell line; assay type: cell-based
# Method: The parental non-mutated cell line A129 was used as control.
# Briefly, cells were plated in 96 well dishes 24 hours prior to compound addition. The assay was terminated with the addition of cold TCA to a final concentration of 10% and the plates were incubated for one hour at 4° C. The plates were then washed 5 times with water and 100 μl of a Sulforhodamine B solution ([…]) was added to each well. The plate was then incubated for 10 minutes at room temperature before removal of unbound dye by washing with 1% acetic acid. The bound dye was solubilized with 10 mM Trizma base and the absorbance read at OD570.
# [3] = system: human H460 non small cell lung cancer (NSCLC) cell line; assay: H460 xenograft model, satraplatin and paclitaxel
# [4] = system: human non small cell lung cancer (NSCLC) cell line H460; assay: H460 xenograft model, satraplatin and docetaxel
# [5] = satraplatin 35 mg/kg/day po, Exp. B
# [6] = satraplatin 40 mg/kg/day po, Exp. B
# [7] = satraplatin 50 mg/kg/day po, Exp. A
# [8] = paclitaxel 25 mg/kg/day iv, Exp. A
# [9] = paclitaxel 25 mg/kg/day iv, Exp. B
# [10] = paclitaxel 40 mg/kg/day iv, Exp. A
# [11] = paclitaxel 40 mg/kg/day iv, Exp. B
# [12] = docetaxel 25 mg/kg iv d7, d14, of 10 animals
smiles,measurement,setting,value
"N.N.[Cl][Pt][Cl] [Cisplatin, cisplatin]",IC50,[1],0.23 µM
same,IC50,"[2]; 48 hours, SRB assay, mean and standard deviation",15.1 µM
same,RR (relative resistance),[2]; A129 cp80 versus A129,80 +/− 25
"CC(=O)[O][Pt]([NH2])([Cl])([Cl])([NH]C1CCCCC1)[O]C(C)=O [Satraplatin, satraplatin]",Max % BW loss,[3]; [5],12%
same,Toxic deaths/total,[3]; [5],0/10
same,Max % BW loss,[3]; [6],16%
same,Toxic deaths/total,[3]; [6],4/10
same,Max % BW loss,[3]; [7],26%
same,Toxic deaths/total,[3]; [7],9/10
same,Max % BW loss,"[4]; satraplatin 25 mg/kg po d8-12, d15-19",6.1%
same,Toxic Deaths,"[4]; satraplatin 25 mg/kg po d8-12, d15-19, of 10 animals",0
same,Max % BW loss,"[4]; satraplatin 35 mg/kg po d8-12, d15-19",9.7%
same,Toxic Deaths,"[4]; satraplatin 35 mg/kg po d8-12, d15-19, of 10 animals",1
"CC(=O)O[C@H]1C(=O)[C@@]2(C)[C@H]([C@H](OC(=O)c3ccccc3)[C@]3(O)C[C@H](OC(=O)[C@H](O)[C@@H](NC(=O)c4ccccc4)c4ccccc4)C(C)=C1C3(C)C)[C@]1(OC(C)=O)CO[C@@H]1C[C@@H]2O [Paclitaxel, paclitaxel]",LCK,[3]; [8],0.6
same,Max TGI %,[3]; [8],56%
same,Toxic deaths/total,[3]; [8],0/10
same,LCK,[3]; [9],0.7
same,Max TGI %,[3]; [9],47%
same,Toxic deaths/total,[3]; [9],0/10
same,LCK,[3]; [10],0.7
same,Max TGI %,[3]; [10],64%
same,Toxic deaths/total,[3]; [10],0/10
same,LCK,[3]; [11],1.0
same,Max TGI %,[3]; [11],59%
same,Toxic deaths/total,[3]; [11],0/10
same,"tumor growth delay equivalent, LCK","[3]; paclitaxel 40 mg/kg/day, in two experiments",0.7-1.0 LCK
same,tolerability and activity as single agent,"[3]; paclitaxel at both doses tested, 25 and 40 mg/kg/day",tolerated and active
"CC(=O)O[C@@]12CO[C@@H]1C[C@H](O)[C@@]1(C)C(=O)[C@H](O)C3=C(C)[C@@H](OC(=O)[C@H](O)[C@@H](NC(=O)OC(C)(C)C)c4ccccc4)C[C@@](O)([C@@H](OC(=O)c4ccccc4)[C@H]21)C3(C)C [Docetaxel, N-debenzoyl-N-tert-butoxycarbonyl-10-deacetyl paclitaxel]",LCK (Td = 2.7),"[4]; docetaxel 25 mg/kg iv d7, d14",0.76
same,Max TGI (d),"[4]; docetaxel 25 mg/kg iv d7, d14, maximum observed on day 13",64.7 (13) %
same,CR (number of animals with complete tumor regression),[4]; [12],0
same,Cure,[4]; [12],0
same,PR (number of animals with partial tumor regression),[4]; [12],0
same,Toxic Deaths,[4]; [12],0
